Measurements from ChEMBL document CHEMBL4402562, “Discovery of Novel Peptidomimetic Boronate ClpP Inhibitors with Noncanonical Enzyme Mechanism as Potent Virulence Blockers in Vitro and in Vivo” (J Med Chem, 2020).
Activity calls are given as the source filed them. The calls are words filed in the database; no cut-off is given here.

Tested on: Staphylococcus aureus
Test: Inhibition of Hla expression in methicillin-resistant Staphylococcus aureus ATCC 33591 at 16 uM by Western blot analysis
Format: functional, organism-based

Q: With `CC(C)C[C@H](NC(=O)[C@H](Cc1c[nH]c2ccccc12)NC(=O)c1cc(Cl)ccc1Cl)B(O)O` as the compound, how does the inhibition read?
A: Its inhibition is “Active”.
